Laboratory results from patent US8344028B2, “Gamma-amino-butyric acid derivatives as GABAB receptor ligands” (XenoPort, Inc., priority 2009, dated 2013).

Target: GABAB receptor (Homo sapiens, UniProt Q9UBS5)
Assay: GABAB receptor agonist or partial agonist activity by binding, electrophysiology, cAMP and/or Ca2+ assay methods (Examples 83-86)
Type: cell-based
Procedure: An assay using rat cerebral cortex membranes was used to determine the affinity of GABAB receptor ligands for the GABAB receptor.
An assay buffer of 50 mM Tris pH 7.4 was prepared with 100 μM of isoguvacine, to block GABAA interactions. The assay buffer with isoguvacine was used for dilution of membranes, compounds, and radiolabel.
Rat cerebral cortex membranes were diluted in assay buffer at 1 mg/mL and aliquoted into a 96-well plate at 900 μL/well. Buffer or test compound were added at 20-times final concentration in the buffer at 50 μL/well. Membranes and test compounds or buffer were incubated for 10 min. at room temperature. Radiolableled [S—(R*,R*)]-[3-[[1-(3,4-dichlorophenyl)ethyl]amino]-2-hydroxypropyl](cyclohexylmethyl) phosphinic acid (CGP54626) was then added at 50 μL/well in the buffer at 1-10 nM concentration in 50 μl. […] The assay mixture was filtered using Brandell filtration apparatus and GFB filters, washed twice with 3 mL of 4° C., 50 mM Tris pH 7.4, buffer without isoguvacine. The filters were then dried at room temperature and the dried filters punched out and placed in individual vials. Three (3) mL of scintillation fluid was added to each vial and the radiolabel counted on the scintillation counter. The inverse amount of radiolabel was indicative of binding of a test compound to the GABAB receptor.
The following procedure was used to determine the level of intracellular cAMP. Recombinant HEK cells expressing the GABAB R1a2 receptor were used in the experiments. cAMP levels were measured using a cAMP XS^+ HitHunter™ Chemiluminescence Assay Kit (90-0075-02, GE Healthcare Biosciences Corp.). Cells were seeded overnight at 5,000 cells per well, in black, clear bottom 96-well plates. The following morning, cells were washed twice with 100 μL PBS per well. Forskolin was weighed out and dissolved in DMSO to a final concentration 100 mM. One-hundred (100) μM forskolin solutions were prepared in PBS with and without test compound at 1-times final concentration. Thirty (30) μL of the test solutions were added to the wells and incubated for 1 h at room temperature. The cAMP concentration was determined according to the protocol described in the cAMP assay kit, maintaining the plate at room temperature and in the dark. […] Each well was read for 6 seconds. The untransformed data was then analyzed.
The following procedure was used to determine the GABAB receptor agonist activity of a compound as reflected by activation of Ca^2+ signaling. HEK TREx cells expressing GABABR1a2 under tetracycline induction control, and Gqi chimeric protein (expressed constitutively), allowing GABABR coupling through the Ca^2+ signaling pathway were used in the experiments.
Cells were seeded in media containing tetracycline overnight at 100,000 cells/well, in black, clear-bottom, 96-well plates. The following morning, cells were washed twice with 100 μL HBSS buffer per well. Fluorescent Ca^2+ indicator dye was prepared using the materials and procedure described in the F362056 Fluo-4 NW Calcium Assay Kit (Invitrogen, Carlsbad, Calif.). Ten (10) mL of kit buffer and 100 μl of kit Probenecid were added to individual kit dye vials, and rolled back and forth several times to dissolve the dye. Cells were then loaded into the dye solution at 50 μL per well. The cells and dye were incubated for 30 min at 37° C., and then incubated for an additional 30 min at room temperature in the dark. Test compounds are dissolved in HBSS buffer at twice final concentration. Duplicate wells were used for each unique condition. Solution containing the test compound was added to the wells using a FLEXStation II (Molecular Devices, Sunnyvale, Calif.). Using the instrument in kinetic mode in which each well was read every 2 sec over a total collection time of 50 sec fluorescence was measured using an excitation wavelength 494 nm and a detection wavelength of 516 nm. A normalized fluorescence value for each well was calculated using the following procedure.

Sequence of GABAB receptor (Q9UBS5 20-961): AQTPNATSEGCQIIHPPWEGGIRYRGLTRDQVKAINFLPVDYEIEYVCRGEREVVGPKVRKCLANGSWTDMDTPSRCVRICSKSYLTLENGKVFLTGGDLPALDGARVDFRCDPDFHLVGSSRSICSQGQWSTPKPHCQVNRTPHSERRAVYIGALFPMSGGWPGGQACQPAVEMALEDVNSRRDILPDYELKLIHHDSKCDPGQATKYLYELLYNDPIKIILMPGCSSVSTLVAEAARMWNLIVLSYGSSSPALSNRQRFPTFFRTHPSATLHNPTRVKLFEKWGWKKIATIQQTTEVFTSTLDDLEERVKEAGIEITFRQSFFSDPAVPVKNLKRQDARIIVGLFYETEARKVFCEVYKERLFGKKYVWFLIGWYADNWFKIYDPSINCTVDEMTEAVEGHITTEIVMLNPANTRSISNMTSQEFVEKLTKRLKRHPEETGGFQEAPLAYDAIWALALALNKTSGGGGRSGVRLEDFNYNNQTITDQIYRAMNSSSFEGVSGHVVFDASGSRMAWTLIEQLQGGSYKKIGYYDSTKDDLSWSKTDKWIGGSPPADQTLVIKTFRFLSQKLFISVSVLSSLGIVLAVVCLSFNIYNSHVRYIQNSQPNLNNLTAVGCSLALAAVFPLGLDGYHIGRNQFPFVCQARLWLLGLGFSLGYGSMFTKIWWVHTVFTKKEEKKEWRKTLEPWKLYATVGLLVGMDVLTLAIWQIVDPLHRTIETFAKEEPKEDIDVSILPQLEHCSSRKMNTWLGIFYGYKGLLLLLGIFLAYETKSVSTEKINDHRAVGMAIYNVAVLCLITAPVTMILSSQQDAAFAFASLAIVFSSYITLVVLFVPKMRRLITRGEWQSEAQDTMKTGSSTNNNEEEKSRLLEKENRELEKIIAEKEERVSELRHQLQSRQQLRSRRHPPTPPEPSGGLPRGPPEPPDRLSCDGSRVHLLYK
Sequence of GABAB receptor (O75899 42-941 partner): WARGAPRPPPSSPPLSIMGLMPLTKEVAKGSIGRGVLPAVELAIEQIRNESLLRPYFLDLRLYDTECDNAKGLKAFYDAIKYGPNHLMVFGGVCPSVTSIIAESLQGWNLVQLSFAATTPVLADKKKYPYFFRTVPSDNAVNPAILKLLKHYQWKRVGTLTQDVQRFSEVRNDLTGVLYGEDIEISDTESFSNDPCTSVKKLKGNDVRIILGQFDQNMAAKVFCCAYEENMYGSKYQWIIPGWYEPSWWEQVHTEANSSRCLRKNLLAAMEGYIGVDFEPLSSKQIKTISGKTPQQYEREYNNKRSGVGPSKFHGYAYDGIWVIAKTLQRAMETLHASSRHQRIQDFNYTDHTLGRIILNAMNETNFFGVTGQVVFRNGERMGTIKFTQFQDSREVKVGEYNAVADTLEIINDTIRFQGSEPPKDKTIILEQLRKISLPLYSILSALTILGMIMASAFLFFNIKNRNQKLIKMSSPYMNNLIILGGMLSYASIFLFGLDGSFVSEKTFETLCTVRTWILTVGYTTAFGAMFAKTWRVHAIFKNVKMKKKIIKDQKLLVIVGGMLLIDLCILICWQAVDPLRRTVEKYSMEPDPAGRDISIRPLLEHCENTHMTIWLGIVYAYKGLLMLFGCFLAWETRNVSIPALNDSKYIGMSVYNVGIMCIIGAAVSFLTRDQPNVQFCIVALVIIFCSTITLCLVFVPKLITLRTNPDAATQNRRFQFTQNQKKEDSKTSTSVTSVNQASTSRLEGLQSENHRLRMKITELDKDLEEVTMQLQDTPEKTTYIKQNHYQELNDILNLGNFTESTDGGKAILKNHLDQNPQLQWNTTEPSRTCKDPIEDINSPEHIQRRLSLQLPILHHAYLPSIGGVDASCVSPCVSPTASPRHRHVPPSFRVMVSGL

SMILES | GABAB receptor agonist or partial agonist activity
CN(C)c1cccc(-c2cc([C@H](CN)CC(=O)O)ccc2Cl)n1.Cl [(3R)-4-amino-3-{3-[6-(dimethylamino)(2-pyridyl)]-4-chlorophenyl}butanoic acid hydrochloride] | agonist or partial agonist activity
COc1cncc(-c2cc(C(CN)CC(=O)O)ccc2Cl)c1.Cl (stereo not drawn) [4-amino-3-[4-chloro-3-(5-methoxy(3-pyridyl))phenyl]butanoic acid hydrochloride] | agonist or partial agonist activity
Cl.NC[C@H](CC(=O)O)c1ccc(Cl)c(NCc2ccc(F)cc2)c1 [(3R)-4-amino-3-(4-chloro-3-{[(4-fluorophenyl)methyl]amino}phenyl)butanoic acid hydrochloride] | agonist or partial agonist activity
Cl.N#Cc1ccccc1CNc1cc([C@H](CN)CC(=O)O)ccc1Cl [(3R)-4-amino-3-(4-chloro-3-{[(2-cyanophenyl)methyl]amino}phenyl)butanoic acid hydrochloride] | agonist or partial agonist activity
Cl.NC[C@H](CC(=O)O)c1ccc(Cl)c(/C=C/c2ccccn2)c1 [3-[3-((1E)-2-(2-pyridyl)vinyl)-4-chlorophenyl](3R)-4-aminobutanoic acid hydrochloride] | agonist or partial agonist activity
Cl.NC[C@H](CC(=O)O)c1ccc(Cl)cc1-c1cccc(C(=O)O)c1 [3-{2-[(1R)-2-amino-1-(carboxymethyl)ethyl]-5-chlorophenyl}benzoic acid hydrochloride] | agonist or partial agonist activity
Cl.N#Cc1cccc(-c2cc([C@@H](CN)CC(=O)O)ccc2Cl)c1 [(3S)-4-amino-3-[4-chloro-3-(3-cyanophenyl)phenyl]butanoic acid hydrochloride] | agonist or partial agonist activity
Cl.N#Cc1ccccc1COc1cc([C@H](CN)CC(=O)O)ccc1Cl [(3R)-4-amino-3-{4-chloro-3-[(2-cyanophenyl)methoxy]phenyl}butanoic acid hydrochloride] | agonist or partial agonist activity
Cl.NC[C@@H](CC(=O)O)c1ccc(Cl)c(NCc2ccncc2)c1 [(3S)-4-amino-3-{4-chloro-3-[(4-pyridylmethyl)amino]phenyl}butanoic acid hydrochloride] | agonist or partial agonist activity
Cc1ncc(-c2cc([C@H](CN)CC(=O)O)ccc2Cl)cn1.Cl [Example 30, (3R)-4-Amino-3-[4-chloro-3-(2-methylpyrimidin-5-yl)phenyl]butanoic acid hydrochloride] | agonist or partial agonist activity
Cl.NC[C@H](CC(=O)O)c1ccc(Cl)c(-c2cccc(O)c2)c1 [Example 34, (3R)-4-Amino-3-[4-chloro-3-(3-hydroxyphenyl)phenyl]butanoic acid hydrochloride] | agonist or partial agonist activity
CS(=O)(=O)c1cccc(-c2cc([C@H](CN)CC(=O)O)ccc2Cl)c1.Cl [Example 54, (3R)-4-Amino-3-{4-chloro-3-[3-(methylsulfonyl)phenyl]phenyl}butanoic acid hydrochloride] | agonist or partial agonist activity
Cl.NC[C@H](CC(=O)O)c1ccc(Cl)c(NCc2ccccn2)c1 [Example 58] | agonist or partial agonist activity
Cl.NC[C@H](CC(=O)O)c1cc(Br)c(Cl)c(-c2cccc(C(=O)O)c2)c1 [3-{5-[(1R)-2-amino-1-(carboxymethyl)ethyl]-3-bromo-2-chlorophenyl}benzoic acid hydrochloride] | agonist or partial agonist activity
NC[C@H](CC(=O)O)c1ccc(Cl)c(NC(=O)c2ccc([N+](=O)[O-])cc2)c1 [(3R)-4-amino-3-{4-chloro-3-[(4-nitrophenyl)carbonylamino]phenyl}butanoic acid] | agonist or partial agonist activity
Cl.N#Cc1cccc(-c2cc(Cl)ccc2[C@H](CN)CC(=O)O)c1 [(3R)-4-amino-3-[4-chloro-2-(3-cyanophenyl)phenyl]butanoic acid hydrochloride] | agonist or partial agonist activity
Cl.NC[C@H](CC(=O)O)c1ccc(Cl)c(-c2cc(F)c(F)c(F)c2)c1 [(3R)-4-amino-3-[4-chloro-3-(3,4,5-trifluorophenyl)phenyl]butanoic acid hydrochloride] | agonist or partial agonist activity
NC[C@H](CC(=O)O)c1cc(Br)c(Cl)c(-c2cccnc2)c1 [(3R)-4-amino-3-(5-bromo-4-chloro-3-(3-pyridyl)phenyl)butanoic acid] | agonist or partial agonist activity
Cl.NC[C@H](CC(=O)O)c1ccc(Cl)c(-c2cccc(CO)c2)c1 [Example 28, (3R)-4-Amino-3-{4-chloro-3-[3-(hydroxymethyl)phenyl]phenyl}butanoic acid hydrochloride] | agonist or partial agonist activity
Cl.NC[C@H](CC(=O)O)c1ccc(Cl)c(-c2ccc(Cl)cc2Cl)c1 [(3R)-4-amino-3-[4-chloro-3-(2,4-dichlorophenyl)phenyl]butanoic acid hydrochloride] | agonist or partial agonist activity
Cl.NC[C@H](CC(=O)O)c1ccc(Cl)c(-c2cnccc2C(=O)O)c1 [3-{5-[(1R)-2-amino-1-(carboxymethyl)ethyl]-2-chlorophenyl}pyridine-4-carboxylic acid hydrochloride] | agonist or partial agonist activity
Cl.NC[C@H](CC(=O)O)c1ccc(Cl)cc1-c1cccnc1 [Example 8, (3R)-4-Amino-3-[4-chloro-2-(3-pyridyl)phenyl]butanoic acid hydrochloride] | agonist or partial agonist activity
Cl.NC[C@@H](CC(=O)O)c1ccc(Cl)c(-c2cccnc2)c1 [(3S)-4-amino-3-(4-chloro-3-(3-pyridyl)phenyl)butanoic acid hydrochloride] | agonist or partial agonist activity
NC[C@H](CC(=O)O)c1ccc(Cl)c(NC(=O)c2cccc(F)c2)c1 [(3R)-4-amino-3-{4-chloro-3-[(3-fluorophenyl)carbonylamino]phenyl}butanoic acid] | agonist or partial agonist activity
Cl.N#Cc1cccc(COc2cc([C@H](CN)CC(=O)O)ccc2Cl)c1 [(3R)-4-amino-3-{4-chloro-3-[(3-cyanophenyl)methoxy]phenyl}butanoic acid hydrochloride] | agonist or partial agonist activity
Cl.NC[C@H](CC(=O)O)c1ccc(Cl)c(-c2cccc(CC(=O)O)c2)c1 [Example 43, (3R)-4-Amino-3-{3-[3-(carboxymethyl)phenyl]-4-chlorophenyl}butanoic acid hydrochloride] | agonist or partial agonist activity
Cl.NC[C@H](CC(=O)O)c1ccc(Cl)c(-c2cncc(C(=O)O)c2)c1 [Example 48, 5-{5-[(1R)-2-Amino-1-(carboxymethyl)ethyl]-2-chlorophenyl}pyridine-3-carboxylic acid hydrochloride] | agonist or partial agonist activity
